The source of these data is patent publication US12649751B2 (Arcus Biosciences, Inc., priority 2022, dated 2026).

The target in one assay is HPK1 (Homo sapiens, UniProt Q92918). The assay is described as follows: HPK1 Biochemical Assay (ADP-Glo luminescence; low ATP 10 μM or high ATP 200 μM). The settings on record: 2 nM HPK1, 10 μM ATP; read-out: Biochemical Potency (low ATP). (In general: In ADP-Glo the light output rises with the ADP produced.)
For assay [1], the system named is p-SLP-76 (Ser376) in Jurkat cells. The assay is described as follows: pSLP76 Cellular Assay (AlphaLISA SureFire Ultra p-SLP-76 (Ser376), anti-CD3 activated Jurkat cells). Format: cell-based. The following applies: Homo sapiens; Jurkat cells, anti-CD3 stimulation, pSLP76; read-out: Cellular Potency. The protocol:
pSLP76 cellular assay was performed using Jurkat cells and the AlphaLISA SureFire Ultra p-SLP-76 (Ser376) Assay Kit (PerkinElmer). Dose-response assays were performed in Greiner® Low Volume 384-well assay plates containing 200 nL of 22 serial 2-fold compound dilutions using Bravo and Echo. Jurkat cells were grown in RPMI-1640 supplemented with 10% FBS and PSG. The day prior to the assay, the cells were collected, and serum starved overnight in Opti-MEM. The day of the assay, the cells were collected and resuspended in HBSS. 100,000 cells/well were added to the compound plates and after a short spin, the plates were incubated at 37° C. for 1 h. The cells were activated by adding 10 μL of 0.025 mg/ml anti-CD3. Plates were then incubated at 37° C. for 45 min. Stimulation was terminated by adding […], followed by a brief centrifugation and 60 min of shaking at 300 rpm. Cell lysates (10 μL) were transferred to 384-well White Opti-plates and the samples were processed according to the manufacturer's directions. The fluorescence signal from pSLP76 was measured at 570 nm using Envision plate reader. IC50 values were determined by fitting the data to a standard 4-parameter logistic equation. The results are summarized in the Cellular Potency columns in Tables 4 and 5 below (Cellular Potency).
On the technique in general: Alpha assays give light when donor and acceptor beads are brought close together.

Some results are limits rather than exact numbers.

Chain of HPK1 (Q92918 whole entry, species assumed): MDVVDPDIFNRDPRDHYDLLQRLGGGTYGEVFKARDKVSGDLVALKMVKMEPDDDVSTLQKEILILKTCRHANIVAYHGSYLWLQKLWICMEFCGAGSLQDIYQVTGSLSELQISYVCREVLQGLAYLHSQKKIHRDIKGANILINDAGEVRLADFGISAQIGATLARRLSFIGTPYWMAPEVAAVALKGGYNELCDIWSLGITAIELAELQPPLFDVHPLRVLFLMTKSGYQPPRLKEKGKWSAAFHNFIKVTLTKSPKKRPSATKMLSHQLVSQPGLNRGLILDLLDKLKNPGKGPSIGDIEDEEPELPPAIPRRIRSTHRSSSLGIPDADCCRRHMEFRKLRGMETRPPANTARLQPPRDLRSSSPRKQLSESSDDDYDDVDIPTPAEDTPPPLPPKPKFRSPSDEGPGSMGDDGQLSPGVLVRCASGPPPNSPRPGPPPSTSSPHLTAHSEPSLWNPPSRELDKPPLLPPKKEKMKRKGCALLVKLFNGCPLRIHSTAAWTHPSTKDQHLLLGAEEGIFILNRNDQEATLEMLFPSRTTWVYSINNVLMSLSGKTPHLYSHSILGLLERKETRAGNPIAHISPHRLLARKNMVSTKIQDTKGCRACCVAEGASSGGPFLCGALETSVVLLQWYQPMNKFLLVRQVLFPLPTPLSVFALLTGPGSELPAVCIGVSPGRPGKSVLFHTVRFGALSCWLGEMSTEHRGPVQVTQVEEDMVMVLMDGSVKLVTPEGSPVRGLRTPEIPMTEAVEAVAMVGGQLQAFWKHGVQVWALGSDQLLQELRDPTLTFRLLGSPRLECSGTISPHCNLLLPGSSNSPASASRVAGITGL

For the compound `Cc1cccc(C)c1-c1nc2cc(Nc3ccc(N4CCOCC4)c(CN(C)C)n3)ncc2s1` [Example 13, 6-[(Dimethylamino)methyl]-N-[2-(2,6-dimethylphenyl)-[1,3]thiazolo[5,4-c]pyridin-6-yl]-5-(morpholin-4-yl)pyridin-2-amine], the results for the IC50 (at HPK1; in assay [1]) were under 100 nM and 100 to 1000 nM, respectively.
The corresponding values for `Cc1cccc(F)c1-c1nc2cc(Nc3ccc(N4CCOCC4)c(CN(C)C)n3)ncc2s1` [Example 14, 6-[(Dimethylamino)methyl]-N-[2-(2-fluoro-6-methylphenyl)-[1,3]thiazolo[5,4-c]pyridin-6-yl]-5-(morpholin-4-yl)pyridin-2-amine] are under 100 nM and 100 to 1000 nM.
Turning to `CN(C)Cc1nc(Nc2cc3nc(-c4c(F)cccc4C(F)(F)F)sc3cn2)ccc1N1CCOCC1` [Example 15, 6-[(Dimethylamino)methyl]-N-{2-[2-fluoro-6-(trifluoromethyl)phenyl]-[1,3]thiazolo[5,4-c]pyridin-6-yl}-5-(morpholin-4-yl)pyridin-2-amine], the IC50 is under 100 nM at HPK1 and 100 to 1000 nM in assay [1].
The corresponding values for `Cc1cccc(F)c1-c1nc2cc(Nc3ccc(N4CCOCC4)c(CN4CCCC4)n3)ncc2s1` [Example 16, N-[2-(2-Fluoro-6-methylphenyl)-[1,3]thiazolo[5,4-c]pyridin-6-yl]-5-(morpholin-4-yl)-6-[(pyrrolidin-1-yl)methyl]pyridin-2-amine] are under 100 nM and 1000 to 5000 nM.
On the same counts, the results for `Fc1cccc(F)c1-c1nc2cc(Nc3ccc(N4CCOCC4)c(CN4CCCC4)n3)ncc2s1` [Example 17, N-[2-(2,6-Difluorophenyl)-[1,3]thiazolo[5,4-c]pyridin-6-yl]-5-(morpholin-4-yl)-6-[(pyrrolidin-1-yl)methyl]pyridin-2-amine] are under 100 nM and 1000 to 5000 nM.
On the same counts, the results for `Cc1cccc(F)c1-c1nc2cc(Nc3ccc(N4CCC(O)CC4)c(CN(C)C)n3)ncc2s1` [Example 18, 1-{2-[(Dimethylamino)methyl]-6-{[2-(2-fluoro-6-methylphenyl)-[1,3]thiazolo[5,4-c]pyridin-6-yl]amino}pyridin-3-yl}piperidin-4-ol] are under 100 nM and 100 to 1000 nM.
Take `CN(C)Cc1nc(Nc2cccc(F)c2-c2nc3cc(Cl)ncc3s2)ccc1N1CCOCC1` [Example 19, N-(2-{6-Chloro-[1,3]thiazolo[5,4-c]pyridin-2-yl}-3-fluorophenyl)-6-[(dimethylamino)methyl]-5-(morpholin-4-yl)pyridin-2-amine]: the IC50 (at HPK1; in assay [1]) was over 5000 nM throughout.
Turning to `CN(C)Cc1nc(Nc2cc3nc(-c4c(F)cccc4Cl)sc3cn2)ccc1N1CCOCC1` [Example 20, N-[2-(2-Chloro-6-fluorophenyl)-[1,3]thiazolo[5,4-c]pyridin-6-yl]-6-[(dimethylamino)methyl]-5-(morpholin-4-yl)pyridin-2-amine], the IC50 on HPK1 was under 100 nM; in assay [1] it was 100 to 1000 nM.
The corresponding values for `CC(C)n1cc(-c2nc3cc(Nc4ccc(N5CCOCC5)c(CN5CCCC5)n4)ncc3s2)cn1` [Example 23, 5-(Morpholin-4-yl)-N-{2-[1-(propan-2-yl)-1H-pyrazol-4-yl]-[1,3]thiazolo[5,4-c]pyridin-6-yl}-6-[(pyrrolidin-1-yl)methyl]pyridin-2-amine] are under 100 nM and over 5000 nM.
On the same counts, the results for `Cn1cc(-c2nc3cc(Nc4ccc(N5CCOCC5)c(CN5CCCC5)n4)ncc3s2)cn1` [Example 24, N-[2-(1-Methyl-1H-pyrazol-4-yl)-[1,3]thiazolo[5,4-c]pyridin-6-yl]-5-(morpholin-4-yl)-6-[(pyrrolidin-1-yl)methyl]pyridin-2-amine] are under 100 nM and 100 to 1000 nM.
On the same counts, the results for `COc1cccc(F)c1-c1nc2cc(Nc3ccc(N4CCOCC4)c(CN(C)C)n3)ncc2s1` [Example 26, 6-[(Dimethylamino)methyl]-N-[2-(2-fluoro-6-methoxyphenyl)-[1,3]thiazolo[5,4-c]pyridin-6-yl]-5-(morpholin-4-yl)pyridin-2-amine] are under 100 nM and 100 to 1000 nM.
On to `Cc1c(-c2nc3cc(Nc4ccc(N5CCOCC5)c(CN5CCCC5)n4)ncc3s2)cnc2c1NCCO2` [Example 27, N-(2-{8-Methyl-1H,2H,3H-pyrido[2,3-b][1,4]oxazin-7-yl}-[1,3]thiazolo[5,4-c]pyridin-6-yl)-5-(morpholin-4-yl)-6-[(pyrrolidin-1-yl)methyl]pyridin-2-amine], for which the values for the IC50 (at HPK1; in assay [1]) were under 100 nM and 100 to 1000 nM, respectively.
With `Cc1c(-c2nc3cc(Nc4ccc(N5CCOCC5)c(CN(C)C)n4)ncc3s2)cnc2c1NCCO2` [Example 28, 6-[(Dimethylamino)methyl]-N-(2-{8-methyl-1H,2H,3H-pyrido[2,3-b][1,4]oxazin-7-yl}-[1,3]thiazolo[5,4-c]pyridin-6-yl)-5-(morpholin-4-yl)pyridin-2-amine], the results for the IC50 (on HPK1; in assay [1]) were under 100 nM and 100 to 1000 nM, respectively.
In the case of `Cc1c(N)cncc1-c1nc2cc(Nc3ccc(N4CCOCC4)c(CN(C)C)n3)ncc2s1` [Example 29, N-[2-(5-Amino-4-methylpyridin-3-yl)-[1,3]thiazolo[5,4-c]pyridin-6-yl]-6-[(dimethylamino)methyl]-5-(morpholin-4-yl)pyridin-2-amine], the results for the IC50 (at HPK1; in assay [1]) were under 100 nM and 100 to 1000 nM, respectively.
`Cc1cccc(F)c1-c1nc2cc(Nc3ccc(N4CCOCC4)c(CN4CCCS4(=O)=O)n3)ncc2s1` [Example 30, 2-[(6-{[2-(2-Fluoro-6-methylphenyl)-[1,3]thiazolo[5,4-c]pyridin-6-yl]amino}-3-(morpholin-4-yl)pyridin-2-yl)methyl]-1λ^6,2-thiazolidine-1,1-dione]: the IC50 at HPK1 was under 100 nM; in assay [1] it was 100 to 1000 nM.
On the same counts, the results for `CN(Cc1nc(Nc2cc3nc(-c4c(F)cccc4F)sc3cn2)ccc1N1CCOCC1)S(C)(=O)=O` [Example 31, N-[(6-{[2-(2,6-Difluorophenyl)-[1,3]thiazolo[5,4-c]pyridin-6-yl]amino}-3-(morpholin-4-yl)pyridin-2-yl)methyl]-N-methylmethanesulfonamide] are 1000 to 5000 nM and over 5000 nM.
The corresponding values for `Cc1ccc(Nc2cc3nc(-c4cnn(CCC(N)=O)c4)sc3cn2)nc1CN1CCCC1` [Example 37, 3-{4-[6-({5-Methyl-6-[(pyrrolidin-1-yl)methyl]pyridin-2-yl}amino)-[1,3]thiazolo[5,4-c]pyridin-2-yl]-1H-pyrazol-1-yl}propanamide] are under 100 nM and 100 to 1000 nM.
The corresponding values for `Cc1ccc(Nc2cc3nc(-c4ncccc4C)sc3cn2)nc1CN1CCCC1` [Example 41, 5-Methyl-N-[2-(3-methylpyridin-2-yl)-[1,3]thiazolo[5,4-c]pyridin-6-yl]-6-[(pyrrolidin-1-yl)methyl]pyridin-2-amine] are under 100 nM and 1000 to 5000 nM.
Turning to `Cc1ccc(Nc2cc3nc(-c4ncccc4C)sc3cn2)nc1CN1CC[C@H](F)C1` [Example 43, 6-{[(3S)-3-Fluoropyrrolidin-1-yl]methyl}-5-methyl-N-[2-(3-methylpyridin-2-yl)-[1,3]thiazolo[5,4-c]pyridin-6-yl]pyridin-2-amine], the IC50 on HPK1 is under 100 nM; in assay [1] it was over 5000 nM.
